Test results taken from patent publication US12522597B2, “Methods and compositions for modulating splicing” (Skyhawk Therapeutics, Inc., priority 2019, dated 2026).
Like-named read-outs stand apart in the source and are kept apart here.

What was measured:
[1] = system: MDR1-MDCK cell monolayers; assay: MDCK-MDR1 permeability assay (BBB penetration potential); format: in vitro ADME; conditions: dog, MDCK-MDR1, 120 min, 5 μM, pH 7.4
Experimental: (§1) Each determination is performed in duplicate. […] Analytical conditions are outlined below.

MDR1 = assay: as above; format: in vitro ADME; conditions: dog; for efflux ratio at 120 min, 5 μM: MDCK-MDR1, pH 7.4, MDCK-MDR1: Efflux; for Papp A→B at 120 min, 5 μM: MDCK-MDR1, pH 7.4, MDCK-MDR1: Papp A-B; for Papp B→A at 120 min, 5 μM: MDCK-MDR1, pH 7.4, MDCK-MDR1: Papp B-A
Experimental: as §1

[2] = system: Huntingtin (HTT) transcripts; assay: Quantitative splicing assay (HTT), qPCR; format: cell-based; conditions: Homo sapiens, GM04724 (CAG 70/20) Huntington's disease patient lymphoblasts, 24 h
In short: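 GM04724 HD patient lymphoblasts (CAG 70/20) dosed 24 h with compound from 2.5 uM to 0.15 nM (0.1% DMSO). Lysates converted to cDNA; TaqMan qPCR measured compound-induced inclusion of a cryptic exon in HTT intron 49.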

mHTT protein = mHTT protein assay (2B7-MW1, Mesoscale Discovery); format: cell-based, human; conditions: GM04724 (CAG 70/20) Huntington's disease patient lymphoblast cells, 48 hours, 2B7-MW1 MSD; read-out: HTT Potency - Protein EC50 mHTT (average)
In short: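 GM04724 Huntington's patient lymphoblasts (CAG 70/20) were treated for 48 h at 10 μM to 0.6 nM. mHTT was quantified by 2B7-MW1 MSD immunoassay, whose signal depends on polyQ expansion and HTT fragment size. Viability was run on a parallel plate by CellTiter-Glo.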

[3] = qPCR HTTex49_50, read-out: HTT Potency - Splicing: E49-50 EC50 (average)
[4] = qPCR cryptic exon 49b inclusion, read-out: HTT Potency - Splicing: E49b EC50 (average)

SMILES	MDCK-MDR1: % Recov A-B [1] [%]	MDCK-MDR1: % Recov B-A [1] [%]	efflux ratio at 120 min, 5 μM (MDR1)	Papp A→B at 120 min, 5 μM (MDR1) [×10⁻⁶ cm/s]	Papp B→A at 120 min, 5 μM (MDR1) [×10⁻⁶ cm/s]	EC50 [2, 3] [nM]	EC50 [2, 4] [nM]	EC50 (mHTT protein) [nM]
Cn1ccc(-c2ccc(-c3ccc(O[C@@H]4C[C@@]5(C)CCC[C@](C)(N5)[C@@H]4F)nn3)c(O)c2)cc1=O (single isomer, unassigned) [149-ENT2]	76	73	24	1.94	45.7	16 to 50	16 to 50	16 to 50
Cn1cc(-c2ccc(-c3ccc(O[C@@H]4C[C@@]5(C)CC[C@](C)(N5)[C@@H]4F)nn3)c(O)c2)cn1 (single isomer, unassigned) [150-ENT2]	78	87	4	9.06	38.6	16 to 50	16 to 50	16 to 50
Cn1cc(-c2ccc(-c3ccc(O[C@H]4C[C@]5(C)CCC[C@@](C)(N5)[C@H]4F)nn3)c(O)c2)cn1 (single isomer, unassigned) [154-ENT1]	73	87	4	9.33	37.7	16 to 50	0.01 to 15	16 to 50
Cn1cc(-c2ccc(-c3ccc(O[C@@H]4C[C@@]5(C)CCC[C@](C)(N5)[C@@H]4F)nn3)c(O)c2)cn1 (single isomer, unassigned) [154-ENT2]	81	92	3	6.92	22	16 to 50	0.01 to 15	16 to 50
Cn1ccc2cc(-c3ccc(O[C@@H]4C[C@@]5(C)CCC[C@](C)(N5)[C@@H]4F)nn3)c(O)cc2c1=O (single isomer, unassigned) [156-ENT1]	86	90	11	4.79	52.6	16 to 50	16 to 50	0.01 to 15
Cn1ccc2cc(-c3ccc(O[C@H]4C[C@]5(C)CCC[C@@](C)(N5)[C@H]4F)nn3)c(O)cc2c1=O (single isomer, unassigned) [156-ENT2]	80	99	9	4.9	46.3	16 to 50	16 to 50	0.01 to 15
COc1cc(-c2ccc(-c3ccc(O[C@@H]4C[C@@]5(C)CC[C@](C)(N5)[C@@H]4F)nn3)c(O)c2)cnn1 (single isomer, unassigned) [157-ENT1]	77	84	6	6.28	35.7	16 to 50	16 to 50	16 to 50
COc1cc(-c2ccc(-c3ccc(O[C@H]4C[C@]5(C)CC[C@@](C)(N5)[C@H]4F)nn3)c(O)c2)cnn1 (single isomer, unassigned) [157-ENT2]	82	81	5	6.79	36.1	16 to 50	16 to 50	16 to 50
Oc1cc(-c2cn[nH]c2)ccc1-c1ccc(O[C@@H]2C[C@H]3C[C@H](F)C[C@@H](C2)N3)nn1 [compound 113, 2-(6-(((1R,3r,5S,7s)-7-fluoro-9-azabicyclo[3.3.1]nonan-3-yl)oxy)pyridazin-3-yl)-5-(1H-pyrazol-4-yl)phenol]	86	88	54	1.01	54.2	0.01 to 15	0.01 to 15	0.01 to 15
